# Columns and labels:
# Hygroscopicity by DVS = assay type: physicochemical; conditions: for 1st Desorp. (%) / 1st Sorp. (%) / 2nd Desorp. (%) / 2nd Sorp. (%): DVS 25° C.
# Method: • Method 1 (for I-1 Form A and I-3 Form A) • Instrument Intrinsic, Advantage or Adventure • Total gas flow 200 sccm • Oven temperature 25° C. • Solvent Water • Method Cycle: 40-0-95-0-40% RH • Stage Step: 10% • Equilibrium: 0.002 dm/dt (%/min) • Minimum dm/dt stability duration: 60 min • Maximum dm/dt stage time: 360 min • Method 2 (for I-4 Form A) • Instrument Intrinsic, Advantage or Adventure • Total gas flow 200 sccm • Oven temperature 25° C. • Solvent Water • Method Cycle: 40-95-0-95-40% RH • Stage Step: 10% • Equilibrium: 0.002 dm/dt (%/min) • Minimum dm/dt stability duration: 60 min • Maximum dm/dt stage time: 360 min
# I-1 Form A is hygroscopic. It absorbs about 5.5% water by weight from 40% RH to 95% RH. […] It absorbs about 40% water by weight from 40% RH to 95% RH. Form changed after the DVS test. […] It starts to absorb water when RH>40% and potential hydrate form generates at high humidity based on DVS data. The sorption and desorption are reversible.
# Water sorption and desorption behavior of I-1 Form A, I-3 Form A, and I-4 Form A was investigated by DVS at 25° C. with a cycle of 40-0-95-0-40% RH, dm/dt 0.002, min. equilibration time 60 min and max. equilibration time 360 min. XRPD was measured after the DVS test to determine form change.
# [1] = Salt screening (XRPD, chiral purity of hits); assay type: physicochemical
# Method: Based on the pKa of I-1 free form, 23 counter ions were selected as salt/cocrystal forming agents. Methanol, acetone and isopropyl acetate were used as screening solvents. 1.0 equivalent of selected counter ions/coformers was applied for salt screening. Slurry equilibration, slow evaporation and anti-solvent addition were used as crystallization methods. In total, about 70 screening experiments were conducted.
# About 50 mg of I-1 Form A were added to a suitable amount of solvent and 1.0 equivalent of counter ions were added under stirring at 50° C. for 2 hours and then at 25° C. for at least 12 hours. MeOH, acetone and IPAc were used as screening solvents.
# Obtained suspensions were taken out and centrifuged. Solids obtained were analyzed by XRPD and salt screening results were summarized in Table 5.1, Table 5.2, and Table 5.3.
compound,measurement,setting,value
"N#Cc1c(-c2cc(NC(=O)c3cc(F)cc(C(F)(F)F)c3)c3c(c2)C(=O)N[C@H]3c2cc(F)ccc2Cl)ccc2ncnn12 [Compound I-1, (R)-N-(3-(2-chloro-5-fluorophenyl)-6-(5-cyano-[1,2,4]triazolo[1,5-a]pyridin-6-yl)-1-oxoisoindolin-4-yl)-3-fluoro-5-(trifluoromethyl)benzamide]",1st Desorp. (%),"Hygroscopicity by DVS; 0% RH, listed as I-1 Form A",0.17%
same,1st Sorp. (%),"Hygroscopicity by DVS; 0% RH, listed as I-1 Form A",0.17%
same,2nd Desorp. (%),"Hygroscopicity by DVS; 0% RH, listed as I-1 Form A",0.001%
same,2nd Sorp. (%),"Hygroscopicity by DVS; 0% RH, listed as I-1 Form A",0.001%
same,2nd Desorp. (%),Hygroscopicity by DVS; 10% RH,0.11%
same,1st Desorp. (%),"Hygroscopicity by DVS; 10% RH, listed as I-1 Form A",0.25%
same,1st Sorp. (%),"Hygroscopicity by DVS; 10% RH, listed as I-1 Form A",0.23%
same,2nd Sorp. (%),"Hygroscopicity by DVS; 10% RH, listed as I-1 Form A",0.08%
same,1st Desorp. (%),"Hygroscopicity by DVS; 20% RH, listed as I-1 Form A",0.33%
same,1st Sorp. (%),"Hygroscopicity by DVS; 20% RH, listed as I-1 Form A",0.29%
same,2nd Desorp. (%),"Hygroscopicity by DVS; 20% RH, listed as I-1 Form A",0.21%
same,2nd Sorp. (%),"Hygroscopicity by DVS; 20% RH, listed as I-1 Form A",0.15%
same,1st Desorp. (%),"Hygroscopicity by DVS; 30% RH, listed as I-1 Form A",0.42%
same,1st Sorp. (%),"Hygroscopicity by DVS; 30% RH, listed as I-1 Form A",0.35%
same,2nd Desorp. (%),"Hygroscopicity by DVS; 30% RH, listed as I-1 Form A",0.33%
same,2nd Sorp. (%),"Hygroscopicity by DVS; 30% RH, listed as I-1 Form A",0.22%
same,1st Desorp. (%),"Hygroscopicity by DVS; 40% RH, listed as I-1 Form A",0.52%
same,1st Sorp. (%),"Hygroscopicity by DVS; 40% RH, listed as I-1 Form A",0.42%
same,2nd Desorp. (%),"Hygroscopicity by DVS; 40% RH, listed as I-1 Form A",0.51%
same,2nd Sorp. (%),"Hygroscopicity by DVS; 40% RH, listed as I-1 Form A",0.32%
same,1st Sorp. (%),"Hygroscopicity by DVS; 50% RH, listed as I-1 Form A",0.54%
same,2nd Desorp. (%),"Hygroscopicity by DVS; 50% RH, listed as I-1 Form A",0.92%
same,1st Sorp. (%),"Hygroscopicity by DVS; 60% RH, listed as I-1 Form A",0.71%
same,2nd Desorp. (%),"Hygroscopicity by DVS; 60% RH, listed as I-1 Form A",1.30%
same,1st Sorp. (%),"Hygroscopicity by DVS; 70% RH, listed as I-1 Form A",1.02%
same,2nd Desorp. (%),"Hygroscopicity by DVS; 70% RH, listed as I-1 Form A",1.62%
same,1st Sorp. (%),"Hygroscopicity by DVS; 80% RH, listed as I-1 Form A",1.84%
same,2nd Desorp. (%),"Hygroscopicity by DVS; 80% RH, listed as I-1 Form A",2.15%
same,1st Sorp. (%),"Hygroscopicity by DVS; 90% RH, listed as I-1 Form A",3.24%
same,2nd Desorp. (%),"Hygroscopicity by DVS; 90% RH, listed as I-1 Form A",3.56%
same,1st Sorp. (%),"Hygroscopicity by DVS; 95% RH, listed as I-1 Form A",5.90%
same,2nd Desorp. (%),"Hygroscopicity by DVS; 95% RH, listed as I-1 Form A",5.90%
same,hygroscopicity,"Hygroscopicity by DVS; DVS at 25° C., listed as I-1 Form A",hygroscopic
same,water absorbed,"Hygroscopicity by DVS; from 40% RH to 95% RH, 25° C., listed as I-1 Form A",about 5.5 % water by weight
same,form after the DVS test (XRPD),Hygroscopicity by DVS; listed as I-1 Form A,no form and crystallinity change
same,Salt screening result (slurry crystallization),"[1]; 1.0 equiv. HCl, Isopropyl acetate (second block of table)",clear solution
same,Salt screening result (slurry crystallization),"[1]; 1.0 equiv. HCl, MeOH","− (I-1 Form A) (Free form, counter ions, or physical mixtures)"
same,Salt screening result (slurry crystallization),"[1]; 1.0 equiv. Hydrobromic acid, Acetone",thin suspension
same,Salt screening result (anti-solvent),"[1]; 1.0 equiv. Hydrobromic acid, Acetone/MTBE",thin suspension
same,Salt screening result (anti-solvent),"[1]; 1.0 equiv. Hydrobromic acid, IPAc/MTBE",thin suspension
same,Salt screening result (slurry crystallization),"[1]; 1.0 equiv. Hydrobromic acid, Isopropyl acetate",clear solution
same,Salt screening result (slurry crystallization),"[1]; 1.0 equiv. Hydrobromic acid, MeOH","− (I-1 Form A) (Free form, counter ions, or physical mixtures)"
same,Salt screening result (slurry crystallization),"[1]; 1.0 equiv. L-aspartic acid, Acetone","− (physical mixtures (Free form, counter ions, or physical mixtures)"
same,Salt screening result (slurry crystallization),"[1]; 1.0 equiv. L-aspartic acid, Isopropyl acetate","− (physical mixtures (Free form, counter ions, or physical mixtures)"
same,Salt screening result (slurry crystallization),"[1]; 1.0 equiv. L-aspartic acid, MeOH","− (physical mixtures (Free form, counter ions, or physical mixtures)"
same,Salt screening result (slurry crystallization),"[1]; 1.0 equiv. L-glutamic acid, Acetone","− (physical mixtures (Free form, counter ions, or physical mixtures)"
same,Salt screening result (slurry crystallization),"[1]; 1.0 equiv. L-glutamic acid, Isopropyl acetate","− (physical mixtures (Free form, counter ions, or physical mixtures)"
same,Salt screening result (slurry crystallization),"[1]; 1.0 equiv. L-glutamic acid, MeOH","− (physical mixtures (Free form, counter ions, or physical mixtures)"
same,Salt screening result (slurry crystallization),"[1]; 1.0 equiv. L-malic acid, Acetone",thin suspension
same,Salt screening result (anti-solvent),"[1]; 1.0 equiv. L-malic acid, Acetone/MTBE","−(I-1 Form B) (Free form, counter ions, or physical mixtures)"
same,Salt screening result (slurry crystallization),"[1]; 1.0 equiv. L-malic acid, Isopropyl acetate","− (I-1 Form A) (Free form, counter ions, or physical mixtures)"
same,Salt screening result (slurry crystallization),"[1]; 1.0 equiv. L-malic acid, MeOH","− (I-1 Form A) (Free form, counter ions, or physical mixtures)"
same,Salt screening result (slurry crystallization),"[1]; 1.0 equiv. L-tartaric acid, Acetone",thin suspension
same,Salt screening result (anti-solvent),"[1]; 1.0 equiv. L-tartaric acid, Acetone/MTBE","−(I-1 Form B) (Free form, counter ions, or physical mixtures)"
same,Salt screening result (slurry crystallization),"[1]; 1.0 equiv. L-tartaric acid, Isopropyl acetate","− (I-1 Form A) (Free form, counter ions, or physical mixtures)"
same,Salt screening result (slurry crystallization),"[1]; 1.0 equiv. L-tartaric acid, MeOH","− (I-1 Form A) (Free form, counter ions, or physical mixtures)"
same,Salt screening result (slurry crystallization),"[1]; 1.0 equiv. citric acid, Acetone",thin suspension
same,Salt screening result (anti-solvent),"[1]; 1.0 equiv. citric acid, Acetone/MTBE","−(I-1 Form B) (Free form, counter ions, or physical mixtures)"
same,Salt screening result (slurry crystallization),"[1]; 1.0 equiv. citric acid, Isopropyl acetate","− (I-1 Form A) (Free form, counter ions, or physical mixtures)"
same,Salt screening result (slurry crystallization),"[1]; 1.0 equiv. citric acid, MeOH","− (I-1 Form A) (Free form, counter ions, or physical mixtures)"
same,Salt screening result (slurry crystallization),"[1]; 1.0 equiv. fumaric acid, Acetone","− (physical mixtures (Free form, counter ions, or physical mixtures)"
same,Salt screening result (slurry crystallization),"[1]; 1.0 equiv. fumaric acid, Isopropyl acetate","− (physical mixtures (Free form, counter ions, or physical mixtures)"
same,Salt screening result (slurry crystallization),"[1]; 1.0 equiv. fumaric acid, MeOH","− (I-1 Form A) (Free form, counter ions, or physical mixtures)"
same,Salt screening result (slurry crystallization),"[1]; 1.0 equiv. gentisic acid, Acetone",thin suspension
same,Salt screening result (anti-solvent),"[1]; 1.0 equiv. gentisic acid, Acetone/MTBE","−(I-1 Form B) (Free form, counter ions, or physical mixtures)"
same,Salt screening result (slurry crystallization),"[1]; 1.0 equiv. gentisic acid, Isopropyl acetate","− (I-1 Form A) (Free form, counter ions, or physical mixtures)"
same,Salt screening result (slurry crystallization),"[1]; 1.0 equiv. gentisic acid, MeOH","− (I-1 Form A) (Free form, counter ions, or physical mixtures)"
same,Salt screening result (slurry crystallization),"[1]; 1.0 equiv. isonicotinamide, Acetone",thin suspension
same,Salt screening result (anti-solvent),"[1]; 1.0 equiv. isonicotinamide, Acetone/MTBE","−(I-1 Form B) (Free form, counter ions, or physical mixtures)"
same,Salt screening result (slurry crystallization),"[1]; 1.0 equiv. isonicotinamide, Isopropyl acetate","− (physical mixtures (Free form, counter ions, or physical mixtures)"

# — patent US20260125374A1, “PI3K-ALPHA INHIBITORS AND METHODS OF MAKING AND USING THE SAME” (Relay Therapeutics, Inc., priority 2021, published 2026)
